{"source": "patent US8337835B2", "about": "“Use of an endogenous ligand for peroxisome proliferator activated receptor alpha to treat liver disorders” (priority 2009, dated 2012)", "tested_on": "PPARα target gene (ACO and CPT-1) expression", "experiment": "PPARα target gene (ACO and CPT-1) expression by quantitative RT-PCR in Hepa 1-6 cells", "assay_type": "cell-based", "settings": "Hepa 1-6 mouse hepatoma cells, 24 h, serum-free DMEM", "experimental": "RT-PCR gene expression analysis and binding assays were employed to address this objective. Wy14,643, 16:0/18:1-GPC, and 18:1/16:0-GPC on PPARα target gene (ACO and CPT-1) expression was measured by quantitative RT-PCR in Hepa 1-6 cells treated for 24 h as in FIG. 6A. Results are mean±SEM of 9 separate experiments. *, P<0.05 compared to control (Ctrl, 80% PBS/20% DMSO).\nThe C57BL/6 mouse hepatoma cell line Hepa 1-6 (ATCC, CRL-1830) was expanded in DMEM with 10% fetal bovine serum. For experiments, cells were cultured to 50-60% confluence, washed twice with PBS, and the medium was changed to serum-free DMEM supplemented with the various types and concentrations of phosphatidylcholine (sonicated to homogeneity in PBS/1% ethanol/4% fatty acid-free BSA), Wy14,643 (dissolved in 80% PBS/20% DMSO), or vehicle-only solutions. 24 h later, cells were washed, RNA prepared, and ACO and CPT-1 expression levels were determined by quantitative RT-PCR (see FIG. 6). For siRNA experiments, 50-60% confluent cells were treated with siRNAs or their scrambled controls (all diluted in PBS) for 72 h. Following the 72 h siRNA treatment, another set of cells received 16:0/18:1-GPC (using a concentration based on dose-response experiments) for an additional 24 h. Stealth™ siRNA oligonucleotides were used to inhibit the gene expression of mouse ChPT1 ([…]) (SEQ ID NO: 1) and CEPT1 ([…]) (SEQ ID NO: 2) were from Invitrogen (Carlsbad, Calif.).\nTotal RNA was extracted from Hepa 1-6 cells and liver using Trizol (Invitrogen) and treated with DNase I (RNase-free, Roche Molecular Biochemicals). Reverse transcription to cDNA and real-time quantitative PCR were performed using previously published procedures and primer-probe sequences for ACO and CPT-1 (Chakravarthy et al., 2005). […] Relative mRNA levels were calculated using both the comparative CT and standard curve methods normalized to ribosomal protein L32, an invariant internal control. […]"}
{"smiles": "CCCCCCCC/C=C\\CCCCCCCC(=O)OC[C@H](COP(=O)([O-])OCC[N+](C)(C)C)OC(=O)CCCCCCCCCCCCCCC", "note": "[18:1/16:0-GPC, 1-oleoyl-2-palmitoyl-sn-glycero-3-phosphocholine, reference compound]", "values": [{"measurement": "expression of PPARα-dependent genes ACO and CPT-I", "value": "does not induce PPARα-dependent gene expression"}]}
